The values below come from patent US8952024B2, “Herbicidal pyrimidone derivatives” (E I du Pont de Nemours and Company, priority 2009, dated 2015).

Common to all, as to assay: Test B pre-/postemergence plant response
Common to all, as to assay type: in vivo

Assay [1] concerns nightshade (eastern black nightshade, Solanum ptycanthum). The following applies: Preemergence; for Nightshade plant response rating: 250 g ai/ha, 0 to 100 scale. The procedure, abridged:
(§1)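 Pre-em in loam/sand; post-em at 1–4 leaf (2–18 cm) in peat mix. Solvent + surfactant formulation. Greenhouse 13–15 d; visual % control vs untreated, 0–100.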

Assay [2] relates to Russian thistle (Salsola kali). The following applies: Preemergence; for Russian Thistle plant response rating: 250 g ai/ha, 0 to 100 scale. The procedure, abridged: as §1
Assay [3] concerns galium (catchweed bedstraw, Galium aparine). The procedure, abridged:
as §1

For assay [4], the system named is sunflower (common oilseed sunflower, Helianthus annuus). Conditions: Preemergence; for Sunflower plant response rating: 250 g ai/ha, 0 to 100 scale. The procedure, abridged: as §1
Assay [5] has as its system deadnettle (henbit deadnettle, Lamium amplexicaule). Conditions: Postemergence. The procedure, abridged: as §1
Where [6] appears, read: 31 g ai/ha, scale 0 to 100 (0 no effect, 100 complete control).
[7] abbreviates: 62 g ai/ha, scale 0 to 100 (0 no effect, 100 complete control).
Where [8] appears, read: 125 g ai/ha, scale 0 to 100, 0 no effect, 100 complete control.
[9] abbreviates: 250 g ai/ha, Preemergence, 0 to 100 scale.
Where [10] appears, read: Preemergence, 62 g ai/ha, scale 0 to 100 (0 no effect, 100 complete control).
[11] abbreviates: Preemergence, 125 g ai/ha, scale 0 to 100, 0 no effect, 100 complete control.
Where [12] appears, read: Preemergence, 31 g ai/ha, scale 0 to 100 (0 no effect, 100 complete control).
The mark [13] stands for this setting: Preemergence, 250 g ai/ha, 0 to 100 scale.
The mark [14] stands for this setting: 31 g ai/ha, 0 to 100 scale (0 no effect, 100 complete control).
[15] abbreviates: 125 g ai/ha, scale 0 to 100 (0 no effect, 100 complete control).
Where [16] appears, read: 250 g ai/ha, scale 0 to 100 (0 no effect, 100 complete control), 13 to 15 days.
[17] abbreviates: Postemergence, 31 g ai/ha, 0 to 100 scale (0 no effect, 100 complete control).
Where [18] appears, read: Postemergence, 125 g ai/ha, scale 0 to 100 (0 no effect, 100 complete control).
Where [19] appears, read: Postemergence, 250 g ai/ha, scale 0 to 100 (0 no effect, 100 complete control), 13 to 15 days.

Turning to `CCCc1ncc(C(=O)C2=C(O)CCCC2=O)c(=O)n1-c1ccccc1C` [Compound 73], the “Plant response rating, Nightshade” value in assay [1] (setting [6]) was 75; in assay [1] (setting [7]), 95; in assay [1] (setting [8]), 98. In assay [2] (setting [6]), the “Plant response rating, Russian Thistle” value is 0. The “Plant response rating, Galium” value in assay [3] (setting [9]) was 85; in assay [3] (setting [10]) it was 30; in assay [3] (setting [11]), 80. The entries for the “Plant response rating, Sunflower” value in assay [4] (setting [6]), in assay [4] (setting [7]) and in assay [4] (setting [8]) were 0, 20 and 70, respectively.
Regarding `COCCCn1c(-c2cc(F)cc(F)c2)ncc(C(=O)C2=C(O)CCCC2=O)c1=O` [Compound 120], the “Plant response rating, Nightshade” value in assay [1] (setting [6]) was found to be 90; in assay [1] (setting [7]), 95; in assay [1] (setting [8]), 95. The “Nightshade plant response rating” value in assay [1] worked out at 98. Also, the “Plant response rating, Russian Thistle” value in assay [2] (setting [7]) and in assay [2] (setting [8]) was 80 in each case. Also, the “Plant response rating, Galium” value came out at 80 in assay [3] (setting [12]), 90 in assay [3] (setting [10]) and 95 in assay [3] (setting [11]). Besides, the “Galium plant response rating” value in assay [3] (setting [13]) is reported as 98. Besides, the “Plant response rating, Sunflower” value in assay [4] (setting [6]) was 45; in assay [4] (setting [8]), 85. For the same compound, in assay [4], the “Sunflower plant response rating” value was 95.
For the compound `COCCn1c(-c2cc(F)cc(F)c2)ncc(C(=O)C2=C(O)CCCC2=O)c1=O` [Compound 119], the “Plant response rating, Nightshade” value in assay [1] (setting [6]) was determined as 90; in assay [1] (setting [7]) it was 98; in assay [1] (setting [8]) it was 98. The “Nightshade plant response rating” value in assay [1] worked out at 100. For the same compound, the “Plant response rating, Russian Thistle” value in assay [2] (setting [6]), in assay [2] (setting [7]) and in assay [2] (setting [8]) was 100 throughout. Moreover, the “Russian Thistle plant response rating” value in assay [2] was determined as 100. Further, the “Plant response rating, Galium” value is on record as 65 in assay [3] (setting [12]), 85 in assay [3] (setting [10]) and 90 in assay [3] (setting [11]). In assay [3] (setting [13]), the “Galium plant response rating” value was determined as 100. Moreover, the “Plant response rating, Sunflower” value in assay [4] (setting [6]) was determined as 40; in assay [4] (setting [7]) it was 60; in assay [4] (setting [8]), 70. In assay [4], the “Sunflower plant response rating” value is reported as 85.
Turning to `CCCc1ncc(C(=O)C2=C(O)CCCC2=O)c(=O)n1CC1CCCO1` (stereo not shown) [Compound 74], the “Plant response rating, Nightshade” value was determined as 85 in assay [1] (setting [6]), 98 in assay [1] (setting [7]) and 98 in assay [1] (setting [8]). Further, the “Nightshade plant response rating” value in assay [1] is given as 100. In addition, the “Plant response rating, Russian Thistle” value in assay [2] (setting [6]) was found to be 0; in assay [2] (setting [7]), 80; in assay [2] (setting [8]) it was 90. Moreover, in assay [2], the “Russian Thistle plant response rating” value was found to be 98. Moreover, the figures for the “Plant response rating, Galium” value in assay [3] (setting [12]), in assay [3] (setting [10]) and in assay [3] (setting [11]) were 20, 30 and 40, respectively. In addition, the “Galium plant response rating” value in assay [3] (setting [13]) came to 98. The “Plant response rating, Sunflower” value in assay [4] (setting [6]) is 0; in assay [4] (setting [7]), 55; in assay [4] (setting [8]) it was 70. For the same compound, the “Sunflower plant response rating” value in assay [4] was determined as 85.
With `O=C1CCCC(O)=C1C(=O)c1cnc(-c2cccc(Cl)c2)n(-c2ccc(Cl)cc2)c1=O` [Compound 64], the “Plant response rating, Nightshade” value is reported as 55 in assay [1] (setting [6]), 85 in assay [1] (setting [7]) and 95 in assay [1] (setting [8]). In assay [2] (setting [7]), the “Plant response rating, Russian Thistle” value is reported as 0. In addition, the “Plant response rating, Galium” value in assay [3] (setting [9]) is on record as 70; in assay [3] (setting [12]) it was 0; in assay [3] (setting [10]), 0; in assay [3] (setting [11]), 30. Besides, the “Plant response rating, Sunflower” value in assay [4] (setting [6]), in assay [4] (setting [7]) and in assay [4] (setting [8]) was 0 each time.
Take `Cc1ccc(Cl)cc1-n1c(-c2cccc(F)c2)ncc(C(=O)C2=C(O)CCCC2=O)c1=O` [Compound 184]: the “Plant response rating, Deadnettle” value in assay [5] (setting [14]), in assay [5] (setting [15]) and in assay [5] (setting [16]) was 100 throughout. For the same compound, the “Plant response rating, Galium” value in assay [3] (setting [17]) is listed as 50; in assay [3] (setting [18]), 60; in assay [3] (setting [19]), 60.
Regarding `Cc1cc(-n2c(-c3cccc(F)c3)ncc(C(=O)C3=C(O)CCCC3=O)c2=O)ccc1F` [Compound 191], the “Plant response rating, Deadnettle” value in assay [5] (setting [14]) was 90; in assay [5] (setting [7]) it was 100; in assay [5] (setting [15]) it was 100; in assay [5] (setting [16]), 100. The “Plant response rating, Galium” value is recorded as 20 in assay [3] (setting [17]); 40 in assay [3] (Postemergence, 62 g ai/ha, scale 0 to 100 (0 no effect, 100 complete control)); 60 in assay [3] (setting [18]); 60 in assay [3] (setting [19]).
As to `CCCCc1ncc(C(=O)C2=C(O)CCCC2=O)c(=O)n1-c1ccc(C)cc1` [Compound 67], the “Plant response rating, Nightshade” value in assay [1] (setting [6]) amounted to 70; in assay [1] (setting [7]), 95; in assay [1] (setting [8]), 95. Also, the “Plant response rating, Russian Thistle” value in assay [2] (setting [6]) is given as 85. Besides, the “Plant response rating, Galium” value in assay [3] (setting [9]) is on record as 90; in assay [3] (setting [12]), 0; in assay [3] (setting [10]) it was 35; in assay [3] (setting [11]) it was 85. For the same compound, the “Plant response rating, Sunflower” value in assay [4] (setting [6]) is on record as 0; in assay [4] (setting [7]), 20; in assay [4] (setting [8]), 35.
